Consider 1 molecule from paper PMC6409996, “Pharmacodynamics and Pharmacokinetics of a New Type of Compound Lansoprazole Capsule in Gastric Ulcer Rats and Beagle Dogs: Importance of Adjusting Oxidative Stress and Inflammation” (Pharmaceutics, 2019).

One data set has as its target H^+-K^+-ATP enzyme (Rattus norvegicus, UniProt P09626). The experiment in a line: Measurement of H+-K+-ATP enzyme activity in gastric ulcer rats. Conditions: 2.7 mg/kg, seven consecutive days, mean ± SD, n = 6.
The test system of data set [1] is COX-2. The experiment in a line: Immunohistochemistry evaluation of gastric tissue for COX-2. The class given is in vivo, rat. To be noted: the LSZ group, p < 0.01. The procedure:
(§1) Gastric tissues were post fixed in 4% paraformaldehyde overnight at 4 °C before routine paraffin sections (4 μm) were prepared for immunohistochemical staining. Paraffin-embedded slices of tissues were incubated overnight at 4 °C with primary rabbit anti-VEGF and anti-COX-2 antibody (1:200, Thermo). After rinsing, sections were incubated in biotinylated goat anti-rabbit IgG (1:200, Maixin) at 37 °C for 30 min and were subsequently incubated in streptavidin-peroxidase conjugate (1:200, Maixin) at 37 °C for 30 min. The sections were developed with 3,3′-diaminobenzidine (DAB) in a chromogen solution and counter-stained with hematoxylin. Images were obtained using an Olympus BX-61microscope (Tokyo, Japan).

The next data set has as its system MDA. The experiment in a line: Measurement of MDA (lipid peroxidation, TBARS) in gastric ulcer rats. Conditions: 2.7 mg/kg, seven consecutive days, mean ± SD, n = 6.
In data set [2] the test system is glacial acetic-acid-induced gastric ulcer. The experiment in a line: Histopathological observation (H&E) of gastric mucosa, glacial acetic-acid-induced gastric ulcer. The format is in vivo, rat. To be noted: treatment with LSZ compared to the model group. As for the experimental part: Cross-sections with a thickness of 4 µm were then papered for hematoxylin and eosin (H&E) staining. All specimens were assessed under a light microscopy.

The subject of data set [3] is COX-2. The experiment in a line: Western blotting determination of gastric tissue for COX-2. The format is in vivo, rat. To be noted: LSZ versus model group, p < 0.01. The procedure: (§2) The homogenate was centrifuged at a force of 12,000 g for 30 min at 4 °C and protein qualification was carried out using a BCA kit. The total protein extract (25 μg per lane) was separated on SDS-polyacrylamide gels and transferred onto PVDF membranes. Nonspecific binding sites on the membrane were blocked by PBS containing 0.1% Tween-20 with 5% bovine serum albumin, which was followed by incubation with rabbit polyclonal primary antibodies against VEGF and COX-2 and β-actin overnight at 4 °C. Immunoreactive bands were visualized using the enhanced chemiluminescent kit. Bands were measured using the Quality One analysis software and the density of each band was normalized to β-actin.

The subject of the next data set is SOD. In words: Measurement of SOD level in gastric ulcer rats. To be noted: 2.7 mg/kg, seven consecutive days, mean ± SD, n = 6.
The conditions of data set [4]: capsules containing enteric-coated granules; cited from earlier work.
For data set [5], the system named is VEGF. The experiment in a line: Immunohistochemistry evaluation of gastric tissue for VEGF. The class given is in vivo, rat. To be noted: the LSZ group, p < 0.01. The procedure: as §1
Data set [6] in a line: Stability of lansoprazole in dog plasma (method validation). Conditions: n = 3. The format is in vitro ADME. From the text:
The method was fully validated in accordance with the US Food and Drug Administration (FDA) guidelines. Specificity, linearity, LLOQ, precision, accuracy, recovery, matrix effect and stability were all experimentally investigated.

Data set [7] has as its system VEGF. The experiment in a line: Western blotting determination of gastric tissue for VEGF. To be noted: LSZ versus model group, p < 0.01. The class given is in vivo, rat. The procedure: as §2
(Immunoblotting shows a protein as a band on a membrane.)

Data set [8] concerns glacial acetic-acid-induced gastric ulcer. The experiment in a line: Macroscopic gastric ulcer assay in the glacial acetic-acid-induced gastric ulcer model. The format is in vivo, rat. As for the experimental part: The gastric ulcer index (UI) was the total area of ulcer. The gastroprotection (%) was calculated and used for macroscopic gastric ulcer assay.
[9] abbreviates: nominal concentration 10 ng·mL^−1.
Where [10] appears, read: nominal concentration 125 ng·mL^−1.
Where [11] appears, read: nominal concentration 2000 ng·mL^−1.

The structures appear in SMILES notation.

H^+-K^+-ATP enzyme, sequence (P09626 whole entry): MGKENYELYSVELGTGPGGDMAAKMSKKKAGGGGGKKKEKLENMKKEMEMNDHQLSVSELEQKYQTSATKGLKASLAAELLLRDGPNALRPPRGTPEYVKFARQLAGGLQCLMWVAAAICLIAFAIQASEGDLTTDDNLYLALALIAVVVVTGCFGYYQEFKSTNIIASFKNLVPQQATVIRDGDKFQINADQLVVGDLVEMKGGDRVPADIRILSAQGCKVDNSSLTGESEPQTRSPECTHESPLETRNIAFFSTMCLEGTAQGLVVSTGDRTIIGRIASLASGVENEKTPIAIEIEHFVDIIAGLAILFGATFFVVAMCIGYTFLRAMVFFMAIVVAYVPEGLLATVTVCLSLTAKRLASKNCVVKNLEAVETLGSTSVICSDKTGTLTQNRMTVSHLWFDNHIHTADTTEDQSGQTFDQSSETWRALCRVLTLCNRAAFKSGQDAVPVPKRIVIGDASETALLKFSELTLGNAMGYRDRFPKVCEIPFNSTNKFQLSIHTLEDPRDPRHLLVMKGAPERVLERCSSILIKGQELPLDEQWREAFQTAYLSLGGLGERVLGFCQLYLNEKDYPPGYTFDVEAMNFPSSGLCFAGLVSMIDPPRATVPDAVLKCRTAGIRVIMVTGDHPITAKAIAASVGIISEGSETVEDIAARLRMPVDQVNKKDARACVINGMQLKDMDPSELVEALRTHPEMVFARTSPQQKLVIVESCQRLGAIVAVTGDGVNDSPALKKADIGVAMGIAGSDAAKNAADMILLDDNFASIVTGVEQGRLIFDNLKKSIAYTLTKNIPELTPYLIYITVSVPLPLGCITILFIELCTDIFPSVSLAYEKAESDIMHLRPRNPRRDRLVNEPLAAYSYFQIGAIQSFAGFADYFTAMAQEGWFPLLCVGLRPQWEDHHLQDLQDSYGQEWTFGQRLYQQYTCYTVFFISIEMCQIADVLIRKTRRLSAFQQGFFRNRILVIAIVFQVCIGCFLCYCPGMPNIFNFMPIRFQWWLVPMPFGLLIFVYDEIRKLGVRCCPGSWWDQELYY
H^+-K^+-ATP enzyme, sequence (P18598 whole entry partner): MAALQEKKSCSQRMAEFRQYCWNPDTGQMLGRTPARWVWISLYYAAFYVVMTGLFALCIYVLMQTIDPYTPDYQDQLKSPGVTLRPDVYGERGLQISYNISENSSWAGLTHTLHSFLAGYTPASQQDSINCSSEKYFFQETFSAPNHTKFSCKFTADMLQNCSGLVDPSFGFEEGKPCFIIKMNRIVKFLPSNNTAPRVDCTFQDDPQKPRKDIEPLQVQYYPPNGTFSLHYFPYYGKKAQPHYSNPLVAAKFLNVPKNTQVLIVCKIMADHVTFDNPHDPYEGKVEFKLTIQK

For `Cc1c(OCC(F)(F)F)ccnc1C[S+]([O-])c1nc2ccccc2[nH]1` (stereo not drawn) [LSZ, Lansoprazole], on H^+-K^+-ATP enzyme, the “H^+-K^+-ATP enzyme activity” value was 7.91 ± 0.76 mmol/g/h. Also, the “Expression of COX-2 (immunohistochemistry)” value in the data set on COX-2 [1] is given as “increased expression”. For the same molecule, in the data set with MDA, the MDA was 75.32 ± 10.77 μmol*g^−1 Pro. For the same molecule, the “Histological evaluation of gastric mucosa (submucosal edema, epithelial cell loss)” value in data set [2] is “protective effect on gastric mucosa”. In addition, in the data set with COX-2 [3], the “Expression of COX-2 protein (Western blot)” value was “significantly increase”. The molecule further displayed an SOD in the data set with SOD of 170.12 ± 13.19 μmol*g^−1 Pro. In addition, in [4], the “Time of peak concentration after oral administration” value is on record as not above 1 ± 2 h. Moreover, the “Expression of VEGF (immunohistochemistry)” value in the data set on VEGF [5] is “increased expression”. In addition, in data set [6] (setting [9]), the “Stability in dog plasma, 3 Freeze-Thaw Cycles” value turned out to be 9.64; the “Stability in dog plasma, 45 Days, −20 °C” value stood at 9.11; the “Stability in dog plasma, 10 h, 4 °C” value was 9.35; the “Stability in dog plasma, 24 h, Room Temperature” value (shortened to “Stability in dog plasma, 24 h”) is recorded as 10.00. In addition, in data set [6] (setting [10]), the “Stability in dog plasma, 3 Freeze-Thaw Cycles” value worked out at 119.79; the “Stability in dog plasma, 45 Days, −20 °C” value is reported as 123.82; the “Stability in dog plasma, 10 h, 4 °C” value is given as 124.51; the “Stability in dog plasma, 24 h” value is 132.80. Further, in [6] (setting [11]), the “Stability in dog plasma, 3 Freeze-Thaw Cycles” value is listed as 2128.46; the “Stability in dog plasma, 45 Days, −20 °C” value is given as 1853.17; the “Stability in dog plasma, 10 h, 4 °C” value was determined as 2088.22; the “Stability in dog plasma, 24 h” value was found to be 2024.38. Besides, the “Expression of VEGF protein (Western blot)” value with VEGF [7] is “significantly increase”. Further, in data set [8] (rats, intragastric, 2.7 mg/kg, seven consecutive days), the “Gastroprotection (%)” value was 29.8%. Besides, the UI in [8] (rats, intragastric, 2.7 mg/kg, seven consecutive days, UI = total area of ulcer, mean ± SD, n = 6) stood at 28.30 ± 7.29. In [8] (treatment with LSZ compared to the model group), the Macroscopic gastric lesions result was “significantly reduced”.
